# Measurements reported in publication PMC5362750, “Discovery of Potent, Selective, and Orally Bioavailable Small-Molecule Modulators of the Mediator Complex-Associated Kinases CDK8 and CDK19” (Journal of Medicinal Chemistry, 2016).
# What was measured:
# DYRK2 = DYRK2 (Homo sapiens, UniProt Q92630); experiment: Kinase panel (Millipore); format: biochemical; settings: 1 µM, ATP at Km
# ULK3 = target: T1, ULK3 (Homo sapiens, UniProt Q6PHR2); experiment: Kinase panel (Millipore); format: biochemical; settings: 1 µM, ATP at Km
# T1 construct: purchased Millipore (KinaseProfiler) kinase panel
# CysLT1 (LTD4) (h) = target: T2, CysLT1 (LTD4) (h) (Homo sapiens, UniProt Q9Y271); experiment: CEREP binding assay; settings: agonist radioligand, read-out: % Inhibition of Control Specific Binding
# T2 construct: purchased Millipore (KinaseProfiler) kinase panel
# DRAK1 = target: T3, DRAK1 (Homo sapiens, UniProt Q9UEE5); experiment: Kinase panel (Millipore); format: biochemical; settings: 1 µM, ATP at Km
# T3 construct: purchased Millipore (KinaseProfiler) kinase panel
# MC3 (h) = target: T4, MC3 (h) (Homo sapiens, UniProt P41968); experiment: CEREP binding assay; settings: agonist radioligand, read-out: % Inhibition of Control Specific Binding
# T4 construct: purchased Millipore (KinaseProfiler) kinase panel
# EPHB2 = target: T5, EPHB2 (Homo sapiens, UniProt P29323); experiment: Kinase panel (Millipore); format: biochemical; settings: 1 µM, ATP at Km
# T5 construct: purchased Millipore (KinaseProfiler) kinase panel
# FMS = target: T6, FMS (Homo sapiens, UniProt P07333); experiment: Kinase panel (Millipore); format: biochemical; settings: 1 µM, ATP at Km
# T6 construct: purchased Millipore (KinaseProfiler) kinase panel
# [1] = system: Ca2+ channel (L, diltiazem site) (benzothiazepines); settings: 10 µM, antagonist radioligand
# EGFR(L861Q) = EGFR(L861Q) (Homo sapiens, UniProt P00533, L861Q); settings: 1 µM, ATP at Km
# MNK2 = target: T7, MNK2 (Homo sapiens, UniProt Q9HBH9); experiment: Kinase panel (Millipore); format: biochemical; settings: 1 µM, ATP at Km
# T7 construct: purchased Millipore (KinaseProfiler) kinase panel
# DMPK = DMPK (Homo sapiens, UniProt Q09013); experiment: Kinase panel (Millipore); format: biochemical; settings: 1 µM, ATP at Km
# Sequence of DMPK (Q09013 whole entry): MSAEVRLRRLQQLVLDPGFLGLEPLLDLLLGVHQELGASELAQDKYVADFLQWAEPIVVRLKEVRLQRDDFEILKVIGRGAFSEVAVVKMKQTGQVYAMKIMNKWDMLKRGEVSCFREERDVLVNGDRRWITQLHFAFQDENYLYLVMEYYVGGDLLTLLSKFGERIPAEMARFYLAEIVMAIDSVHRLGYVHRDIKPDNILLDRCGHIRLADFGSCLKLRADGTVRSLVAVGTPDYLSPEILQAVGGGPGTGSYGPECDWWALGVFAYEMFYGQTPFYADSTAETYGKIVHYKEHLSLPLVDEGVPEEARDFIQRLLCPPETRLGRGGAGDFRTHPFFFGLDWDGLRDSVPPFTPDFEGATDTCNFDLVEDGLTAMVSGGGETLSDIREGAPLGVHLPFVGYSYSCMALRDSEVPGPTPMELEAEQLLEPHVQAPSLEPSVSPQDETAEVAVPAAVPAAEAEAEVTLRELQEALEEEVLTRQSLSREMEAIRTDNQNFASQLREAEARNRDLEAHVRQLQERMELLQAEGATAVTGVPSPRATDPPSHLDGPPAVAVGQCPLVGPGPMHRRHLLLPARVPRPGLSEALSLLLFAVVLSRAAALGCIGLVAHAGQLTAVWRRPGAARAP
# EPHA5 = target: T8, EPHA5 (Homo sapiens, UniProt P54756); experiment: Kinase panel (Millipore); format: biochemical; settings: 1 µM, ATP at Km
# T8 construct: purchased Millipore (KinaseProfiler) kinase panel
# T8 sequence (P54756 25-1037): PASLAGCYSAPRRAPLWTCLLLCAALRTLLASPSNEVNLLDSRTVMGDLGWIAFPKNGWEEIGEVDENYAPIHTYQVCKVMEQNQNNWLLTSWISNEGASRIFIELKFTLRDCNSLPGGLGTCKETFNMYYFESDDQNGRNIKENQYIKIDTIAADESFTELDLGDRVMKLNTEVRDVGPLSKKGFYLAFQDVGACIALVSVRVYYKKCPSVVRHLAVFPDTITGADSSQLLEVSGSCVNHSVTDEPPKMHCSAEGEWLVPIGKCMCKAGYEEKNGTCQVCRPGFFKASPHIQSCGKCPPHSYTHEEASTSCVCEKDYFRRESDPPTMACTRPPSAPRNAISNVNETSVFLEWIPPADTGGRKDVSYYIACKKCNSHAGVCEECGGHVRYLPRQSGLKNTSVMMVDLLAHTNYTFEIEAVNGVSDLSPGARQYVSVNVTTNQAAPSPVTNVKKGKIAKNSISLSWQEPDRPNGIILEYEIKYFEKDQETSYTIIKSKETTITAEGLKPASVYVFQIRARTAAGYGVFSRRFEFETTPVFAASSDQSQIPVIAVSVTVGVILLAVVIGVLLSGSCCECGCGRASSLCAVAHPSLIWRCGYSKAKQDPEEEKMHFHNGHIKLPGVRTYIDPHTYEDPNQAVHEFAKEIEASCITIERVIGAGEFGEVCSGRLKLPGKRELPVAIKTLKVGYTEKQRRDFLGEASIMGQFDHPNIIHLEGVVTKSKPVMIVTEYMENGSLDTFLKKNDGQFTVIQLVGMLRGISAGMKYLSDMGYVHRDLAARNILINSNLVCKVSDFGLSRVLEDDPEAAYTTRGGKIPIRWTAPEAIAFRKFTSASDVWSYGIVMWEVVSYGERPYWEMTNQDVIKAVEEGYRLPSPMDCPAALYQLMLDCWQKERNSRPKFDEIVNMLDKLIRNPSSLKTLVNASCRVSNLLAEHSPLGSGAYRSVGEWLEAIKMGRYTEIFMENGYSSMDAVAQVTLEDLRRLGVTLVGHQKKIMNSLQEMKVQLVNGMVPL
# CK1DELTA = CK1DELTA (Homo sapiens, UniProt P48730); experiment: Kinase panel (Millipore); format: biochemical; settings: 1 µM, ATP at Km
# IRAK1 = IRAK1 (Homo sapiens, UniProt P51617); experiment: Kinase panel (Millipore); format: biochemical; settings: 1 µM, ATP at Km
# Sequence of IRAK1 (P51617 whole entry): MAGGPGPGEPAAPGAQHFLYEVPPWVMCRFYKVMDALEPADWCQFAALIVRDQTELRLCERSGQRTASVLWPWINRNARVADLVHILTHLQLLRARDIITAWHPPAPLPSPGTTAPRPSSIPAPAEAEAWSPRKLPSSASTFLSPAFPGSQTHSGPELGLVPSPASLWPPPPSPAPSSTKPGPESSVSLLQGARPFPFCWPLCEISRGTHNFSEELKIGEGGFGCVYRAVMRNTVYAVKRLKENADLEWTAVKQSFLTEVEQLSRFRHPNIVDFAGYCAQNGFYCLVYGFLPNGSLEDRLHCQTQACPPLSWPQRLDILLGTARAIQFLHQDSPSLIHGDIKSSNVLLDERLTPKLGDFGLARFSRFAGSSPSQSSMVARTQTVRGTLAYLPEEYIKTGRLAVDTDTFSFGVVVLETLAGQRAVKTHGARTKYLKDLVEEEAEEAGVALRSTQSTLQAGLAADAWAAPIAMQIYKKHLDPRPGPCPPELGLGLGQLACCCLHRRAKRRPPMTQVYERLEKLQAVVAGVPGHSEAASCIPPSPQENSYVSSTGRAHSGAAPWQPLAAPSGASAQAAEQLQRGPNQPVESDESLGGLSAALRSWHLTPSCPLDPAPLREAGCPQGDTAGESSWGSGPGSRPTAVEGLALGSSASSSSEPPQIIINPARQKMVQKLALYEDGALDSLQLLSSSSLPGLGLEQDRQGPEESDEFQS
# H4 (h) = target: T9, H4 (h) (Homo sapiens, UniProt Q9H3N8); experiment: CEREP binding assay; settings: agonist radioligand, read-out: % Inhibition of Control Specific Binding
# T9 construct: purchased Millipore (KinaseProfiler) kinase panel
# MC1 = target: T10, MC1 (Mus musculus, UniProt Q01727); experiment: CEREP binding assay; settings: agonist radioligand, read-out: % Inhibition of Control Specific Binding
# T10 construct: purchased Millipore (KinaseProfiler) kinase panel
# T10 sequence (Q01727 whole entry): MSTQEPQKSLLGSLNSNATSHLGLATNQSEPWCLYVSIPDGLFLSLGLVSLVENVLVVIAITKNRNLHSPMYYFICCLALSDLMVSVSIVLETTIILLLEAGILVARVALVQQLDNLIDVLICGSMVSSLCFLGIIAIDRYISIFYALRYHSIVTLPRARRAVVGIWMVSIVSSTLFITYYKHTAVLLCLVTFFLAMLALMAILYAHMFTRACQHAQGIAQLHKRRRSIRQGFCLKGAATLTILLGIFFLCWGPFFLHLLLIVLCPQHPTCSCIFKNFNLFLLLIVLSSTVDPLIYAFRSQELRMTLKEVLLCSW
# in vitro = settings: human, Caco-2, pH 7.4
# PYK2 = target: T11, PYK2 (Homo sapiens, UniProt Q14289); experiment: Kinase panel (Millipore); format: biochemical; settings: 1 µM, ATP at Km
# T11 construct: purchased Millipore (KinaseProfiler) kinase panel
# PKBGAMMA = PKBGAMMA (Homo sapiens, UniProt Q9Y243); experiment: Kinase panel (Millipore); format: biochemical; settings: 1 µM, ATP at Km
# BLK = BLK (Homo sapiens, UniProt P51451); experiment: Kinase panel (Millipore); format: biochemical; settings: 1 µM, ATP at Km
# CDK7/CYCLINH/MAT1 = CDK7/CYCLINH/MAT1 (Homo sapiens, UniProt P50613); settings: 1 µM, ATP at Km
# SIK = target: T12, SIK (Homo sapiens, UniProt P57059); experiment: Kinase panel (Millipore); format: biochemical; settings: 1 µM, ATP at Km
# T12 construct: purchased Millipore (KinaseProfiler) kinase panel
# [2] = female, Beagle, dog, in vivo
# CAMKIIDELTA = CAMKIIDELTA (Homo sapiens, UniProt Q13557); experiment: Kinase panel (Millipore); format: biochemical; settings: 1 µM, ATP at Km
# NEK11 = target: T13, NEK11 (Homo sapiens, UniProt Q8NG66); experiment: Kinase panel (Millipore); format: biochemical; settings: 1 µM, ATP at Km
# T13 construct: purchased Millipore (KinaseProfiler) kinase panel
# EPHB1 = target: T14, EPHB1 (Homo sapiens, UniProt P54762); experiment: Kinase panel (Millipore); format: biochemical; settings: 1 µM, ATP at Km
# T14 construct: purchased Millipore (KinaseProfiler) kinase panel
# CHK2(I157T) = CHK2(I157T) (Homo sapiens, UniProt O96017, I157T); settings: 1 µM, ATP at Km
# PDGFRALPHA = target: T15, PDGFRALPHA (Homo sapiens, UniProt P16234); experiment: Kinase panel (Millipore); format: biochemical; settings: 1 µM, ATP at Km
# T15 construct: purchased Millipore (KinaseProfiler) kinase panel
# CAMKIIGAMMA = CAMKIIGAMMA (Homo sapiens, UniProt Q13555); experiment: Kinase panel (Millipore); format: biochemical; settings: 1 µM, ATP at Km
# AR (h) = settings: 10 µM, agonist radioligand
# BRK = target: T16, BRK (Homo sapiens, UniProt Q13882); experiment: Kinase panel (Millipore); format: biochemical; settings: 1 µM, ATP at Km
# T16 construct: purchased Millipore (KinaseProfiler) kinase panel
# T16 sequence (Q13882 whole entry): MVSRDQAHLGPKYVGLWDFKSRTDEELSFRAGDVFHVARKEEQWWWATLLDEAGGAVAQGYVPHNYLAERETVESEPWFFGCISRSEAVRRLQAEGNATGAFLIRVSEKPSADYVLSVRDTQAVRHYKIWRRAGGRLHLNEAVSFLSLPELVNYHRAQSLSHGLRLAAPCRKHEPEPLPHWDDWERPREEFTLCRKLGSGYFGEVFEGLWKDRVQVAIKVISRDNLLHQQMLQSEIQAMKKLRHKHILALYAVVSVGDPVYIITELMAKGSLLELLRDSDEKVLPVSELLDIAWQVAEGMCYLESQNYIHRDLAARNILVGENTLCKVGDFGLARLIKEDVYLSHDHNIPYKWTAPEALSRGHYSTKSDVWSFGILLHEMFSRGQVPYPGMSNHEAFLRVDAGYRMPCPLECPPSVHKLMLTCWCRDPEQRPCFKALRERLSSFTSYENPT
# ARK5 = target: T17, ARK5 (Homo sapiens, UniProt O60285); experiment: Kinase panel (Millipore); format: biochemical; settings: 1 µM, ATP at Km
# T17 construct: purchased Millipore (KinaseProfiler) kinase panel
# T17 sequence (O60285 whole entry): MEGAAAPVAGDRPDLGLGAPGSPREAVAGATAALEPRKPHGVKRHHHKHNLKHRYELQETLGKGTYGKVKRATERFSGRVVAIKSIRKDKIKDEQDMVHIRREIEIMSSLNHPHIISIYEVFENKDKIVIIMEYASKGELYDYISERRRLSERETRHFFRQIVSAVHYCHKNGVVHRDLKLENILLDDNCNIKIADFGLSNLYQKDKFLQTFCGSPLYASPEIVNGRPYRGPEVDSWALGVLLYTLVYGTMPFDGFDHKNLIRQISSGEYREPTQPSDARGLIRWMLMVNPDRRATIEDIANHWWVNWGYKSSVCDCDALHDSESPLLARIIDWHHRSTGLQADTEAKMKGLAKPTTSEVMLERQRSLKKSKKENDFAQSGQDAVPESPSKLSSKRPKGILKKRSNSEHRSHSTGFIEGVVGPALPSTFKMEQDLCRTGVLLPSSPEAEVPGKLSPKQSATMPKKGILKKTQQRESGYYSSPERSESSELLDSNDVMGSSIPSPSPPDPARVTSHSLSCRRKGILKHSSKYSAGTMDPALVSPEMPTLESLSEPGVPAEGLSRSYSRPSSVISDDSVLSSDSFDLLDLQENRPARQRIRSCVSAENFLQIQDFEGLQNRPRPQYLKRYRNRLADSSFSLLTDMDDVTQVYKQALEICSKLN
# FLT3 = target: T18, FLT3 (Homo sapiens, UniProt P36888); experiment: Kinase panel (Millipore); format: biochemical; settings: 1 µM, ATP at Km
# T18 construct: purchased Millipore (KinaseProfiler) kinase panel
# SAPK3 = SAPK3 (Homo sapiens, UniProt P53778); experiment: Kinase panel (Millipore); format: biochemical; settings: 1 µM, ATP at Km
# TIE2 = target: T19, TIE2 (Homo sapiens, UniProt Q02763); experiment: Kinase panel (Millipore); format: biochemical; settings: 1 µM, ATP at Km
# T19 construct: purchased Millipore (KinaseProfiler) kinase panel
# D2S (h) = D2S (h) (Homo sapiens, UniProt P14416); experiment: biochemical; settings: read-out: % Inhibition of Control Specific Binding
# beta 3 (h) = target: T20, beta 3 (h) (Homo sapiens, UniProt P13945); experiment: CEREP binding assay; settings: antagonist radioligand, read-out: % Inhibition of Control Specific Binding
# T20 construct: purchased Millipore (KinaseProfiler) kinase panel
# T20 sequence (P13945 whole entry): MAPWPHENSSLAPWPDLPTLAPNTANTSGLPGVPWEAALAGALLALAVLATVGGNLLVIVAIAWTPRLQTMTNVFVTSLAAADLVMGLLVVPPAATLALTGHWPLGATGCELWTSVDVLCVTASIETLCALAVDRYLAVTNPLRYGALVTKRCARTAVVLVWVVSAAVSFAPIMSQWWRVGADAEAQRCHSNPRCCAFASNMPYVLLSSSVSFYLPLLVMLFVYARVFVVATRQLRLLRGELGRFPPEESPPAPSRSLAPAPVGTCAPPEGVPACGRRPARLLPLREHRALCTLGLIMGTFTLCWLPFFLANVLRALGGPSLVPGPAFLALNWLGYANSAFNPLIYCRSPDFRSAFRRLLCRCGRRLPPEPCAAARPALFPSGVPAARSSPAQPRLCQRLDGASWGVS
# WNK3 = target: T21, WNK3 (Homo sapiens, UniProt Q9BYP7); experiment: Kinase panel (Millipore); format: biochemical; settings: 1 µM, ATP at Km
# T21 construct: purchased Millipore (KinaseProfiler) kinase panel
# PAF (h) = target: T22, PAF (h) (Homo sapiens, UniProt P25105); experiment: CEREP binding assay; settings: agonist radioligand, read-out: % Inhibition of Control Specific Binding
# T22 construct: purchased Millipore (KinaseProfiler) kinase panel
# AT2 (h) = target: T23, AT2 (h) (Homo sapiens, UniProt P50052); experiment: CEREP binding assay; settings: agonist radioligand, read-out: % Inhibition of Control Specific Binding
# T23 construct: purchased Millipore (KinaseProfiler) kinase panel
# T23 sequence (P50052 whole entry): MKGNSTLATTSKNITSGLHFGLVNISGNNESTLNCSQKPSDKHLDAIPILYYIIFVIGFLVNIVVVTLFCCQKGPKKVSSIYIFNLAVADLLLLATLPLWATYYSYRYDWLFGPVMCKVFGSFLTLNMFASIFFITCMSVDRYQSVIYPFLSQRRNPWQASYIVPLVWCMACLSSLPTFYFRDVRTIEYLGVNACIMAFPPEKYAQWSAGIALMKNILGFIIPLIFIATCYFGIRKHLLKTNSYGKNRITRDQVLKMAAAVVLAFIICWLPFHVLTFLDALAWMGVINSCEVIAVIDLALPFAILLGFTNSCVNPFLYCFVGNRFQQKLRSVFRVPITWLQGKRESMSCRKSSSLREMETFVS
# 5-HT4e (h) = 5-HT4e (h) (Homo sapiens, UniProt Q13639); experiment: biochemical; settings: read-out: % Inhibition of Control Specific Binding
# CCK2 (CCKB) (h) = CCK2 (CCKB) (h) (Homo sapiens, UniProt P32239); experiment: CEREP binding assay; settings: agonist radioligand, read-out: % Inhibition of Control Specific Binding
# NK1 (h) = NK1 (h) (Homo sapiens, UniProt P25103); experiment: CEREP binding assay; settings: agonist radioligand, read-out: % Inhibition of Control Specific Binding
# Sequence of NK1 (h) (P25103 whole entry): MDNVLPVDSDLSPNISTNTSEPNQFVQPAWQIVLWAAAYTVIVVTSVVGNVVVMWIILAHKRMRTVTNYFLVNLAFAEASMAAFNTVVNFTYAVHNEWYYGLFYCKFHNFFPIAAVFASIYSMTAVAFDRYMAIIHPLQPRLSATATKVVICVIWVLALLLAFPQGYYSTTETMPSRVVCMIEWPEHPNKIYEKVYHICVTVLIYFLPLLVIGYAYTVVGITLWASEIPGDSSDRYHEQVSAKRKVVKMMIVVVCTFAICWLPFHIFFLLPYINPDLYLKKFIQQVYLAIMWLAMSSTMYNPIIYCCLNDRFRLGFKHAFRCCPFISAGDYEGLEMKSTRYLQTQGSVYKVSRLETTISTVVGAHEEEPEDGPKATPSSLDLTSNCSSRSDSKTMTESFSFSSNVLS
structure (smiles),measurement,setting,value
"Cn1ncc2cc(-c3cnc(N)c(Cl)c3N3CCC4(CCNC4=O)CC3)ccc21 [Compound 109, 8-(2-Amino-3-chloro-5-(1-methyl-1H-indazol-5-yl)pyridin-4-yl)-2,8-diazaspiro[4.5]decan-1-one]",% effect,DYRK2,-9%
same,% effect,ULK3,-21%
same,inhibition at 10 µM,CysLT1 (LTD4) (h),12%
same,% effect,DRAK1,1%
same,inhibition at 10 µM,MC3 (h),-24%
same,% effect,EPHB2,-3%
same,% effect,FMS,-23%
same,% Inhibition of Control Specific Binding,[1],5%
same,% effect,EGFR(L861Q),11%
same,% effect,MNK2,-3%
same,% effect,DMPK,4%
same,% effect,EPHA5,-9%
same,% effect,CK1DELTA,18%
same,% effect,IRAK1,15%
same,inhibition at 10 µM,H4 (h),0%
same,inhibition at 10 µM,MC1,-8%
same,"Papp A→B at 2 h, 1 μM",in vitro,31.8 ×10⁻⁶ cm/s
same,% effect,PYK2,-2%
same,% effect,PKBGAMMA,7%
same,% effect,BLK,11%
same,% effect,CDK7/CYCLINH/MAT1,5%
same,% effect,SIK,-1%
same,LBF,[2],43%
same,% effect,CAMKIIDELTA,7%
same,% effect,NEK11,12%
same,% effect,EPHB1,3%
same,% effect,CHK2(I157T),-5%
same,% effect,PDGFRALPHA,10%
same,% effect,CAMKIIGAMMA,8%
same,% Inhibition of Control Specific Binding,AR (h),-2%
same,% effect,BRK,13%
same,% effect,ARK5,10%
same,% effect,FLT3,7%
same,% effect,SAPK3,4%
same,% effect,TIE2,14%
same,inhibition at 10 µM,D2S (h),-5%
same,inhibition at 10 µM,beta 3 (h),-16%
same,% effect,WNK3,6%
same,inhibition at 10 µM,PAF (h),-4%
same,inhibition at 10 µM,AT2 (h),6%
same,inhibition at 10 µM,5-HT4e (h),-3%
same,inhibition at 10 µM,CCK2 (CCKB) (h),0%
same,inhibition at 10 µM,NK1 (h),25%
